# Where two headings read alike, the source gives them in different places.
# Columns and labels:
# [1] = tested on: SARS-CoV-2 in Calu-3 cells
# [2] = tested on: SARS-CoV-2; type: in vivo, Syrian hamster; details: for Activity in SARS-CoV-2 Hamster Model: doses, frequency, duration as in Table 1
# [3] = tested on: SARS-CoV-2; details: read-out: SARS-CoV-2 EC50, cited from earlier work
# [4] = tested on: SARS-CoV-2 in Vero cells; experiment: microbe, parasite or virus in culture; details: Severe acute respiratory syndrome coronavirus 2, Vero
# [5] = tested on: SARS-CoV-2 in Vero cells
# [6] = tested on: SARS-CoV-2 in Calu-3 cells; experiment: microbe, parasite or virus in culture; details: Severe acute respiratory syndrome coronavirus 2, Calu-3, read-out: Calu-3 cells Average IC50
# [7] = in vitro; details: African green monkey, Selectivity Index (Vero cells)
# [8] = in vitro; details: hamster, plasma
# [9] = female, LGV Golden Syrian, hamster, in vivo
# [10] = in vitro; details: bovine
# [11] = in vitro; details: human, plasma
# [12] = Population PK model from satellite PK studies in hamster
# [13] = Plasma protein binding, hamster; details: hamster, plasma
# [14] = cited from earlier work
# [15] = Binding to antiviral assay medium by Rapid Equilibrium Dialysis; details: bovine
# [16] = Population PK model in human (digitized literature data); details: modelled from digitized data
# [17] = tested on: SARS-CoV-2 in A549-Dual hACE2-TMPRSS2 cells; design: method as in Abdelnabi et al., 2022 [60]; details: ref Abdelnabi et al., 2022 [60]; cited from earlier work
# [18] = hamster of the study's median weight (80-131 g)
# [19] = read-out: VERO cells Average IC50, With Pgp pump inhibitor, 2 μM CP-100356, * one replicate only
# [20] = read-out: VERO cells Average IC50, Without Pgp pump inhibitor, * one replicate only
# [21] = human, ref 68 (ambroxol), 71-73 (cepharanthine)
# [22] = human, ref 68 (ambroxol), 71-73 (cepharanthine), 78 (fluvoxamine), 80 (molnupiravir)
Structure (SMILES),Activity In Vitro; Potency EC50 or IC50 < 10 µM; Calu-3 Cells [1],Activity in SARS-CoV-2 Hamster Model [2],Activity In Vitro; Potency EC50 or IC50 < 10 µM; Vero Cells [5],"Toxicity observed (^T), Vero Cells [5]",IC50 [6] [µM],selectivity ratio ([7]; With Pgp pump inhibitor),selectivity ratio ([7]; Without Pgp pump inhibitor),fraction unbound [8],"CL/F, elimination clearance, population estimate (%RSE) [9]","VC/F, central volume of distribution, population estimate (%RSE) [9]",fraction unbound [10],fraction unbound [11],"KA, absorption rate constant, population estimate (%RSE) [12, 18]","Q/F (Q1/F), inter-compartment clearance, population estimate (%RSE) [12, 18]","VP/F, peripheral volume of distribution, population estimate (%RSE) [12, 18]",fraction unbound [13],"IC50 [4, 19] [µM]","IC50 [4, 20] [µM]",fraction unbound [15],EC50 ([3]; host cell VeroE6/TMPRSS2) [µM],other results
"CC(C)/N=c1\cc2n(-c3ccc(Cl)cc3)c3ccccc3nc-2cc1Nc1ccc(Cl)cc1 [Clofazimine, clofazimine]",Yes (Potency EC50 or IC50 < 10 µM),No,Yes (Potency EC50 or IC50 < 10 µM),Yes ^T,8.4,208,8.4,< 0.001,49.4 (7.2) mL/h,356 (11.9) mL,0.003,< 0.001,0.38 (11.0) h-1,235 (10.4) mL/h,2250 (28.0) mL,,,,,,"EC50 ([3]; host cell Vero E6, ref 39): 0.31 µM; IC50 ([4]; read-out: VERO cells Average IC50, With Pgp pump inhibitor): 0.2 µM; IC50 ([4]; read-out: VERO cells Average IC50, Without Pgp pump inhibitor): 5.9 µM; Dose effect on F (power) ([12]; covariate, hamster model): -0.109 (16.2); Dose effect on KA (exp) ([12]; covariate, hamster model): -0.0094 (20.4); Q2/F, population estimate (%RSE) ([12]; hamster 120 g): 90.5 (20.6) mL/h; VP2/F, population estimate (%RSE) ([12]; hamster 120 g): 7390 (14.9) mL"
"COC(=O)N[C@H](C(=O)N1CCC[C@H]1c1nc(-c2ccc(-c3ccc(-c4c[nH]c([C@@H]5CCCN5C(=O)[C@@H](NC(=O)OC)C(C)C)n4)cc3)cc2)c[nH]1)C(C)C [Daclatasvir, daclatasvir]",No (Potency EC50 or IC50 < 10 µM),No,,,24.4,,,,,,,,0.415 (5.84) h-1,33.4 (25.5) mL/h,438 (25.6) mL,0.055,7.6,19.8,0.209,,"Activity in SARS-CoV-2 Hamster Model ([2]; listed as daclatasvir): no activity; EC50 ([3]; host cell Calu-3): 1.1 µM; EC50 ([3]; host cell HuH-7): 0.6 µM; EC50 ([3]; host cell Vero, ref 26): 0.8 µM; Fraction unbound in plasma, human ([14]; literature, ref 61 (N-desethylamodiaquine), 62 (atazanavir), 63 (daclatasvir), 64 (favipiravir), 65 (ivermectin), 66 (tizoxanide), 67 (sofosbuvir)): 1%; Activity In Vitro; Potency EC50 or IC50 < 10 µM; Vero Cells ([5]; in the presence of a P-glycoprotein inhibitor (^Pgp)): Yes (Potency EC50 or IC50 < 10 µM); selectivity ratio ([7]; With Pgp pump inhibitor, T: toxicity observed): > 6.6; selectivity ratio ([7]; Without Pgp pump inhibitor, T: toxicity observed): > 2.5; CL/F, elimination clearance, population estimate (%RSE) [12, 18]: 239 (19.6) mL/h; VC/F, central volume of distribution, population estimate (%RSE) [12, 18]: 86.3 (27.0) mL"
"COc1ccc2cc1Oc1ccc(cc1)C[C@H]1c3c(cc4c(c3Oc3cc5c(cc3OC)CCN(C)[C@@H]5C2)OCO4)CCN1C [Cepharanthine, cepharanthine]",No (Potency EC50 or IC50 < 10 µM),No,Yes (Potency EC50 or IC50 < 10 µM),Yes ^T,> 50,17.2,9.7,0.018,804 (25.0) mL/h,66400 (12.5) mL,0.643,0.02,,,,,1.9,4.5,,0.35,"F, population estimate (%RSE) ([16]; adult 70 kg): 0.116 (7.3%); KA, population estimate (%RSE) ([16]; adult 70 kg): 0.187 (11.0%) h-1; Q2/F, population estimate (%RSE) ([16]; adult 70 kg): 131 (14.2%) L/h; VP2/F, population estimate (%RSE) ([16]; adult 70 kg): 438 (26.5%) L; Q/F (Q1/F), population estimate (%RSE) [16, 21]: 258 (7.6%) L/h; VP/F (VP1/F), population estimate (%RSE) [16, 21]: 9190 (7.3%) L; CL/F, population estimate (%RSE) [16, 22]: 74.4 (5.5%) L/h; VC/F, population estimate (%RSE) [16, 22]: 110 (10.8%) L; KA, absorption rate constant, population estimate (%RSE) [9]: 1.52 (27.0) h-1"
"CC(C)(C)[C@H](NC(=O)C(F)(F)F)C(=O)N1C[C@H]2[C@@H]([C@H]1C(=O)N[C@H](C#N)C[C@@H]1CCNC1=O)C2(C)C [Nirmatrelvir, nirmatrelvir]",Yes (Potency EC50 or IC50 < 10 µM),Yes,Yes (Potency EC50 or IC50 < 10 µM),,0.3,,,,,,,,,,,0.621,< 0.05,3.4,0.898,,"Activity in SARS-CoV-2 Hamster Model ([2]; listed as nirmatrelvir): demonstrated in vivo efficacy; Lung TCID50 of SARS-CoV-2 in the hamster model ([2]; hamster, in vivo): significant reduction; EC50 [17]: 110 nM"
"NC(=O)c1nc(F)c[nH]c1=O [Favipiravir, favipiravir]",No (Potency EC50 or IC50 < 10 µM),Yes,No (Potency EC50 or IC50 < 10 µM),,> 50,,,0.821,58.2 (6.06) mL/h,11.7 (14.7) mL,,,,,,,> 50,> 50,0.993,> 64,"Activity in SARS-CoV-2 Hamster Model ([2]; listed as favipiravir): demonstrated in vivo efficacy; EC50 ([3]; host cell Vero E6, ref 17): 446 µM; EC50 ([3]; host cell Vero E6, ref 31): > 100 µM; EC50 ([3]; host cell Vero E6, ref 32): > 50 µM; EC50 ([3]; host cell Vero E6, ref 34): 117 µM; EC50 ([3]; host cell Vero E6, ref 35): 62 µM; EC50 ([3]; host cell Vero, ref 25): > 500 µM; EC50 ([3]; host cell Vero, ref 36): > 20 µM; Fraction unbound in plasma, human ([14]; human, plasma): 46%; KA, absorption rate constant, population estimate (%RSE) [9]: 0.774 (7.71) h-1; Q/F (Q1/F), inter-compartment clearance, population estimate (%RSE) [9]: 1.80 (12.7) mL/h; VP/F, peripheral volume of distribution, population estimate (%RSE) [9]: 11.6 (8.7) mL"
